According to patent publication US20080188837A1, “Local Delivery of Drugs or Substances Using Electronic Permeability Increase” (priority 2004, published 2008):

Key:
Format in all cases: in vitro ADME, Wistar rat
[1] = system: upper jejunum tissue segments; assay: In vitro permeation of octreotide through rat upper jejunum in a diffusion chamber, with and without LITV pulses (FIG. 24); conditions: 12 Hz monophasic pulses, 1 millisecond, 3 mA, vs control chamber without electrical stimulation, 1 mg/ml donor, 90-minute period
From the text: The distance between electrode centers was 10 mm.

[2] = system: jejunal tissue samples (upper jejunum); assay: In vitro permeation of octreotide via jejunal tissue in diffusion chamber 500 under LITV pulses (FIGS. 27-36); conditions: for octreotide permeation vs control group: FIG. 29; for permeation efficiency, effect of electrode material: FIG. 34
Procedure: (§1) The samples were analyzed for their content of octreotide by HPLC-UV 205 nm spectroscopy (Hewlett-Packard 1100). […] A 100×3 mm C18 column was used.

[3] = system: proximal ileum tissue samples; assay: In vitro permeation of octreotide via proximal ileum tissue in diffusion chamber 500 under LITV pulses (FIG. 36); conditions: 18 Hz, 3 mA, 1 millisecond, at 7 minutes, vs non-stimulated control
Procedure: as §1

[4] = system: distal ileum tissue samples; assay: In vitro permeation of octreotide via distal ileum tissue in diffusion chamber 500 under LITV pulses (FIG. 36); conditions: 18 Hz, 3 mA, 1 millisecond, at 7 minutes, vs non-stimulated control
Procedure: as §1

Question: Which “octreotide permeation into acceptor cell” value [1] does the source give for `C[C@@H](O)[C@@H]1NC(=O)[C@H](CCCCN)NC(=O)[C@@H](Cc2c[nH]c3ccccc23)NC(=O)[C@H](Cc2ccccc2)NC(=O)[C@@H](NC(=O)[C@H](N)Cc2ccccc2)CSSC[C@@H](C(=O)N[C@H](CO)[C@@H](C)O)NC1=O` [octreotide, octreotide acetate] here?
Answer: substantially greater increase in octreotide permeation

Question: And the “permeation efficiency, effect of pulse cycle” value ([2]; 1 pulse per cycle among 1, 2, 3 pulses per cycle, 18 Hz, 3 mA, 1 millisecond, FIG. 31)?
Answer: greatest permeation efficiency

Question: What about the “transport enhancement ratio (ER), effect of pulse frequency” value ([2]; 18 Hz among 5, 12, 18, 24, 30, 60 Hz, 1 millisecond, 3 mA, at 30 minutes, FIG. 28) of the same compound?
Answer: greatest enhancement ratio

Question: And the “permeation efficiency, effect of cessation of pulse application” value ([2]; continuous application of pulses vs cessation after 10 minutes (n=1), 18 Hz, 3 mA, 1 millisecond, normalized to control group of FIG. 27, FIG. 35)?
Answer: substantially greater permeation efficiency

Question: And the “magnitude of permeation efficiency, effect of electrode distance from jejunal tissue” value ([2]; electrode distance 0.5 mm (n=2) vs 3 mm (n=6), 18 Hz, 3 mA, 1 millisecond, at 15 minutes, FIG. 32)?
Answer: greater at 0.5 mm than at 3 mm

Question: And the “permeation efficiency, effect of pulse application by intestinal region” value (“permeation efficiency … by intestinal region” below) ([2]; jejunal tissue, 18 Hz, 3 mA, 1 millisecond, at 7 minutes, vs non-stimulated control, FIG. 36)?
Answer: greatest effect of pulse application

Question: What about the “permeation efficiency, trend with number of pulses per cycle” value ([2]; number of pulses per cycle increased from 1 to 2 to 3 (5-millisecond intervals), 18 Hz, 3 mA, 1 millisecond, FIG. 31) of the same compound?
Answer: the permeation efficiency decreased

Question: And the “transport enhancement ratio (ER), effect of pulse duration” value ([2]; pulse duration 1 millisecond among 0.2, 0.5, 1, 3 milliseconds, 18 Hz, 3 mA, at 15 minutes, FIG. 30)?
Answer: greatest enhancement ratio

Question: What about the “octreotide permeation (permeation efficiency)” value ([2]; pulses 1 millisecond, 18 Hz, 3 mA (n=6) vs non-stimulated control group (n=3), FIG. 27) of the same compound?
Answer: substantially enhanced octreotide permeation

Question: What about the “octreotide permeation vs control group” value ([2]; pulses at 5 Hz (n=1), 1 millisecond, 3 mA) of the same compound?
Answer: did not yield a higher octreotide permeation

Question: And the “octreotide permeation vs control group” value ([2]; pulses at 60 Hz (n=1), 1 millisecond, 3 mA)?
Answer: did not yield a higher octreotide permeation

Question: What about the “permeation efficiency, effect of electrode material” value ([2]; silver chloride (AgCl) electrodes (n=2), 18 Hz, 3 mA, 1 millisecond) of the same compound?
Answer: did not increase permeation efficiency

Question: And the “permeation efficiency, effect of electrode material” value ([2]; stainless steel (SS316L) electrodes (n=6), 18 Hz, 3 mA, 1 millisecond)?
Answer: substantially increased permeation efficiency

Question: What about the “permeation efficiency, effect of electrode material” value ([2]; titanium nitride (TN) electrodes (n=3), 18 Hz, 3 mA, 1 millisecond) of the same compound?
Answer: did not increase permeation efficiency

Question: And the “permeation efficiency, effect of electrode insulation” value ([2]; without divider 528, electrodes not insulated from each other (n=1), 18 Hz, 3 mA, 1 millisecond, FIG. 33)?
Answer: did not increase permeation efficiency

Question: What about the “permeation efficiency … by intestinal region” value [3] of the same compound?
Answer: increased permeation efficiency

Question: And the “permeation efficiency … by intestinal region” value [4]?
Answer: positive but less pronounced effect
